The record followed here is article PMC2606048 (Bioorganic & medicinal chemistry letters, 2008).

For assay [1], the system named is L1210, FM3A, Molt/4 and CEM cells. As to the kind of experiment: Antiproliferative activity summarised over the panel of four cancer cell lines. The format is cell-based, murine and human. Particulars: for Antiproliferative activity (in words): four cell lines; for IC50: read-out: IC50 (span over the four cell lines).
The test system of assay [2] is murine leukemia (L1210) cells. As to the kind of experiment: Inhibition of proliferation of murine leukemia. Format: cell-based.
Assay [3] has as its system human T-lymphocyte Molt4/C8 cells. As to the kind of experiment: Inhibition of proliferation of human T-lymphocyte Molt4/C8 cells. Format: cell-based.
Assay [4] relates to human T-lymphocyte CEM cells. Nature of the assay: Inhibition of proliferation of human T-lymphocyte CEM cells. Format: cell-based.
In assay [5] the test system is K562 (human chronic myelogenous leukemia) cells. Nature of the assay: K562 cell growth inhibition after 24 h. Format: cell-based. As to conditions: read-out: IC50 determined for 24 h of growth.
The test system is the same in assay [6]. Nature of the assay: Flow cytometric analysis of cell cycle distribution in K562 cells. The format is cell-based. As to conditions: 24 h, compound at its 24 h IC50, propidium iodide. (In general: In flow cytometry, cells or beads pass a laser one at a time.)
Another assay has as its system tubulin. Nature of the assay: Inhibition of tubulin polymerization. Particulars: read-out: Tubulin assembly IC50 ± SD; Tubulin was at 10 μM.
Assay [7] deals with murine mammary carcinoma (FM3A) cells. Nature of the assay: Inhibition of proliferation of murine mammary carcinoma. Format: cell-based.

Like-named read-outs stand apart in the source and are kept apart here.

On to `COc1cc(C(=O)c2c(N)sc3c2CCN(C(=O)NC(C)C)C3)cc(OC)c1OC` [Compound 4m], for which the “Antiproliferative activity (in words)” value in assay [1] was “inactive”.
For orientation: IC50 means the concentration that inhibits the measured activity by half. “2-amino-3-(3,4,5-trimethoxybenzoyl)-6-methoxycarbonyl-4,5,6,7-tetrahydrothieno[b]pyridine [Compound 4f]”: the figures for the “fold more potent than 4g” value in assay [2] (L1210 cells), in assay [3] (Molt4 cells) and in assay [4] were 4 fold, 6 fold and 5 fold, respectively. In addition, the IC50 came out at 70 nM in assay [5] (K562 cells, 24 h) and 600 ± 20 nM in the assay on tubulin. Besides, the “Effect on cell cycle distribution” value in assay [6] is on record as “marked increase in the percentage of cells blocked in the G2-M phase”.
On to `CCNC(=S)N1CCc2c(sc(N)c2C(=O)c2cc(OC)c(OC)c(OC)c2)C1` [Compound 4t], for which the 50% inhibitory concentration (IC50) in assay [1] is 4800 to 6900 nM.
As to `CCCOC(=O)N1CCc2c(sc(N)c2C(=O)c2cc(OC)c(OC)c(OC)c2)C1` [Compound 4h], the “fold reduction in activity on lengthening the alkyl chain (vs 4g)” value was 10 fold in assay [2] (L1210 cells), 25 fold in assay [7], 1.5 fold in assay [3] (Molt-4 cells) and 3 fold in assay [4].
`COc1cc(C(=O)c2c(N)sc3c2CCN(C(C)=O)C3)cc(OC)c1OC` [Compound 4e]: the IC50 in assay [1] is 1100 to 3900 nM.
`COc1cc(C(=O)c2c(N)sc3c2CCN(C(=S)NC2CCCCC2)C3)cc(OC)c1OC` [Compound 4w]: the IC50 in assay [1] fell in the range of 730 to 1100 nM.
On the same count and under the same terms, the value for `CCN1CCc2c(sc(N)c2C(=O)c2cc(OC)c(OC)c(OC)c2)C1` [Compound 4b] was 1700 to 2100 nM.
Same read-out and setting: the value for `COc1cc(C(=O)c2c(N)sc3c2CCN(C)C3)cc(OC)c1OC` [Compound 4a] was greater than 10000 nM.
Take `COc1cc(C(=O)c2c(N)sc3ccccc23)cc(OC)c1OC` [Compound 2a, reference compound]: in the assay on tubulin, the IC50 was determined as 1900 ± 100 nM.
Consider `COc1ccc(/C=C\c2cc(OC)c(OC)c(OC)c2)cc1O` [CA-4 (1), combretastatin A-4, reference compound], for which, in assay [2] (Mus musculus, L1210, read-out: IC50 L1210), the IC50 came to 2.8 ± 1.1 nM.
`COc1cc(C(=O)c2c(N)sc3cnccc23)cc(OC)c1OC` [Compound 5, 2-amino-3-(3′,4′,5′-trim-ethoxybenzoyl)thieno[2,3-c]pyridine]: the “fold less potent than 2a” value in assay [4] was 13 fold. The IC50 was 500 nM in assay [5] (Homo sapiens, K562, 24 h) and 5400 ± 400 nM with tubulin. The “Effect on cell cycle distribution” value in assay [6] is “marked increase in the percentage of cells blocked in the G2-M phase”.
With `CNC(=S)N1CCc2c(sc(N)c2C(=O)c2cc(OC)c(OC)c(OC)c2)C1` [Compound 4s], the IC50 in assay [1] fell in the range of 1600 to 4900 nM.
Take `CCOC(=O)N1CCc2c(sc(N)c2C(=O)c2cc(OC)c(OC)c(OC)c2)C1` [Compound 4g]: the IC50 in assay [5] (Homo sapiens, K562, 24 h) was 80 nM; in assay [1] it was 57 to 440 nM. Besides, the “Effect on cell cycle distribution” value in assay [6] is reported as “marked increase in the percentage of cells blocked in the G2-M phase”.
For the compound `CCCN1CCc2c(sc(N)c2C(=O)c2cc(OC)c(OC)c(OC)c2)C1` [Compound 4c], the IC50 in assay [1] is greater than 10000 nM.
Consider `COc1cc(C(=O)c2c(N)sc3c2CCN(Cc2ccccc2)C3)cc(OC)c1OC` [Compound 4d], for which the IC50 in assay [1] is greater than 10000 nM.
As for `COc1cc(C(=O)c2c(N)sc3c2CCN(C(=S)NC(C)C)C3)cc(OC)c1OC` [Compound 4u], the “Antiproliferative activity (in words)” value in assay [1] was “inactive”.
